The values that follow come from patent US7056938B1, “Method for scavenging radicals with urocanic acid, derivatives and analogues” (Academisch Ziekenhuis Bij De Univ., priority 1999, dated 2006).

Data set [1] in a line: hydroxyl-radical-generating systems with copper ions (Cu2+). The data set is classed as physicochemical. The procedure: UCA isomers (10 or 40 μM) were oxidized with a hydroxyl-radical-generating system that consisted of various concentrations of ferrous ions (10–500 μM) and a fixed hydrogen peroxide concentration of 500 μM (the Fenton reagent), either in a sodium phosphate (10 or 20 mM) medium of pH 7.2, or in ultrapure water. In addition, two hydroxyl-radical-generating systems with copper ions (Cu^2+) were used, consisting of 50 μM Cu^2+ with either 500 μM hydrogen peroxide or 5 mM ascorbic acid.
Evaluation of the data was difficult with the ascorbate system, because several interfering peaks had occurred in the chromatograms, which were probably derived from ascorbic acid and its oxidation products.
When another hydroxyl-radical-generating system, based on copper ions (Cu^2+) was investigated, the combination of Cu^2+/ascorbic acid/hydrogen peroxide caused a large breakdown or trans-UCA (Table 3) and a moderate yield of UCA oxidation products, in favor of ImCOOH. […] For the situation in vivo, one must remember that the epidermal copper content is lower than iron (29).

Data set [2] in a line: Fenton oxidation of UCA (Fe2+ / hydrogen peroxide, HPLC). In kind it is physicochemical. As to conditions: for TRANS-UROCANIC ACID LEFT OVER: trans-UCA 40 μM, hydrogen peroxide 500 μM; for YIELD of FENTON OXIDATION PRODUCTS: sum of 8 major peaks. The procedure:
Trans-UCA and cis-UCA were separated from each other and from several UCA oxidation products on a 4.6×250 mm Alltima C18 and Luna C18 reversed-phase column (Alitech, Deerfield, Ill. and Phenomenex, Torrence, Calif., resp.) with a flow of 0.8 mL/min, delivered by P-3500 HPLC-pumps (Pharmacia, Uppsala, Sweden). Samples of 20 to 200 μL were injected by a Promis II autosampler (Spark Holland, Emmen, The Netherlands) and chromatographic data were recorded on an SP 4270 integrator (Spectra Physics, San Jose, Calif.). Peak area data from samples were only processed under identical HPLC circumstances. A UV-detector (Applied Biosystems, model 759A, Foster City, Calif.) was set for 226 nm detection. Isocratic elution was performed with 10 mM ammonium formate buffer, containing 0.2–0.8 mM tetrabutylammonium(TBA)formate and 1% acetonitrile (pH 7.2). Collected fractions were acidified with formic acid up to a final concentration of 100 mM and passed through C18 could phase extraction columns (J T Baker, Deventer, The Netherlands) in order to remove TBA.
[…] In addition, two hydroxyl-radical-generating systems with copper ions (Cu^2+) were used, consisting of 50 μM Cu^2+ with either 500 μM hydrogen peroxide or 5 mM ascorbic acid.
In the next series of experiments we studied the Fenton oxidation of UCA, representing another natural oxidation process. Trans-UCA and cis-UCA isomers were Fenton oxidized by ferorus ions (Fe^2+) and hydrogen peroxide at physiological concentrations. The initial hydrogen peroxide concentration was 500 μM and the ferrous ion concentration was varied from 0 to 500 μM. In all Fenton oxidation reactions the degree of UCA-isomer breakdown was calculated from their reduced peak areas. The oxidation reaction must have been completed within 2 minutes for all reaction conditions, because no further breakdown was observed after prolonged incubation.
When the Fenton reaction was performed in water instead of phosphate buffer, the oxidative breakdown of trans-UCA was enhanced irrespective of the UCA concentration. The turbidity seen in reactions performed in phoshate buffer (10 mM) with high Fe^2+ concentration (>100 μM) was probably due to the formation of insoluble, iron phosphate, thereby reducing the free availability of Fe^2+. Table 3 summarizes the difference between water and phosphate medium for trans-UCA at an initial concentration of 40 μM with respect to its breakdown and the formation of Fenton-oxidation products. Similarly to the photo-oxidation experiments, the peak areas of the 8 major oxidation products were summed. […] A close resemblance was observed between the chromatographic patterns of UCA Fenton oxidation products (not shown) and those of UCA photo-oxidation products. Three of them has been identified (vide infra).
In another series of experiments we studied the Fenton oxidation of UCA, representing another natural oxidation process. The initial hydrogen peroxide concentration was 500 μM in all experiments and the ferrous ion concentration was varied from 0 to 400 μM. Four sets of conditions were compared: […] in phosphate buffer pH 7.2, 2. Fe^2+ in phosphate buffer plus EDTA, 3. Fe^2− without buffer with a initial pH of 5.5–5.3 and 4. Cu^2+ in phosphate buffer plus ascorbate. The degree of breakdown was similar for both UCA isomers.

With `O=C(O)/C=C/c1cnc[nH]1` [trans-Urocanic acid, Trans-urocanic acid], the trans-UCA left in data set [1] (Cu2+ (50 μM) and ascorbic acid (5 mM) without hydrogen peroxide) turned out to be 3%; in data set [1] (Cu2+ (50 μM) and hydrogen peroxide (500 μM), without ascorbic acid) it was 88%. For the same compound, the “TRANS-UROCANIC ACID LEFT OVER” value in data set [2] (Fe2+ 0 μM, in phosphate buffer 10 mM pH 7.2) was 100 (±1) %; in data set [2] (Fe2+ 0 μM, in water), 100 (±3) %; in data set [2] (Fe2+ 50 μM, in phosphate buffer 10 mM pH 7.2), 97 (±1) %; in data set [2] (Fe2+ 50 μM, in water) it was 77 (±11) %; in data set [2] (Fe2+ 100 μM, in phosphate buffer 10 mM pH 7.2), 94 (±5) %; in data set [2] (Fe2+ 100 μM, in water), 48 (±7) %. The “TRANS-UROCANIC ACID LEFT OVER” value in data set [2] (Fe2+ 250 μM, in phosphate buffer 10 mM pH 7.2) was 83 (±3) %; in data set [2] (Fe2+ 250 μM, in water), 19 (±8) %; in data set [2] (Fe2+ 500 μM, in phosphate buffer 10 mM pH 7.2), 78 (±12) %; in data set [2] (Fe2+ 500 μM, in water), under 4%. Besides, the “YIELD of FENTON OXIDATION PRODUCTS” value in data set [2] (Fe2+ 0 μM, in phosphate buffer) is listed as under 10 A.U; in data set [2] (Fe2+ 0 μM, in water), under 10 A.U; in data set [2] (Fe2+ 50 μM, in phosphate buffer), under 10 A.U; in data set [2] (Fe2+ 50 μM, in water) it was 194 (±34) A.U; in data set [2] (Fe2+ 100 μM, in phosphate buffer) it was 27 (±5) A.U; in data set [2] (Fe2+ 100 μM, in water), 272 (±6) A.U. Besides, the “YIELD of FENTON OXIDATION PRODUCTS” value in data set [2] (Fe2+ 250 μM, in phosphate buffer) is listed as 36 (±3) A.U; in data set [2] (Fe2+ 250 μM, in water) it was 423 (±76) A.U; in data set [2] (Fe2+ 500 μM, in phosphate buffer), 49 (±9) A.U; in data set [2] (Fe2+ 500 μM, in water) it was 511 (±35) A.U. Besides, the “broken down by the unbuffered Fenton oxidation system” value in data set [2] (initial UCA concentration 250 μM, unbuffered) was determined as 78%.
